Test results published in PubChem BioAssay (NCI).
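Exposure lasted 48 hours, with cells grown in 96-well plates and compounds tested at five concentrations. TGI is the concentration that stops growth completely.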

Experiments:
Test in all cases: NCI-60 cell line screen, 48 h
OVCAR-3 ovarian = system: OVCAR-3 ovarian
DMS 273 small cell lung = system: DMS 273 small cell lung
U251 CNS = system: U251 CNS
UO-31 renal = system: UO-31 renal
OVCAR-8 ovarian = system: OVCAR-8 ovarian
SF-268 CNS = system: SF-268 CNS
SR leukemia = system: SR leukemia
A549 NSCLC = system: A549 NSCLC
M19-MEL melanoma = system: M19-MEL melanoma
HCT-15 colon = system: HCT-15 colon
MALME-3M melanoma = system: MALME-3M melanoma
KM20L2 colon = system: KM20L2 colon
UACC-62 melanoma = system: UACC-62 melanoma
NCI-H522 lung = system: NCI-H522 lung
HCT-116 colon = system: HCT-116 colon
IGROV1 ovarian = system: IGROV1 ovarian
RXF-631 renal = system: RXF-631 renal
DLD-1 colon = system: DLD-1 colon
HT29 colon = system: HT29 colon
SF-295 CNS = system: SF-295 CNS
RPMI-8226 leukemia = system: RPMI-8226 leukemia
786-0 renal = system: 786-0 renal
HOP-92 NSCLC = system: HOP-92 NSCLC
SF-539 CNS = system: SF-539 CNS
HOP-18 NSCLC = system: HOP-18 NSCLC
LXFL 529 NSCLC = system: LXFL 529 NSCLC
SW-620 colon = system: SW-620 colon
NCI-H460 lung = system: NCI-H460 lung
SN12C renal = system: SN12C renal
CCRF-CEM leukemia = system: CCRF-CEM leukemia
SNB-19 CNS = system: SNB-19 CNS
SNB-78 CNS = system: SNB-78 CNS
HL-60(TB) leukemia = system: HL-60(TB) leukemia
NCI-H226 lung = system: NCI-H226 lung
HOP-62 NSCLC = system: HOP-62 NSCLC
K-562 leukemia = system: K-562 leukemia
RXF 393 renal = system: RXF 393 renal
SK-MEL-28 melanoma = system: SK-MEL-28 melanoma
LOX IMVI melanoma = system: LOX IMVI melanoma
OVCAR-5 ovarian = system: OVCAR-5 ovarian
COLO 205 colon = system: COLO 205 colon
A498 renal = system: A498 renal
MOLT-4 leukemia = system: MOLT-4 leukemia
EKVX NSCLC = system: EKVX NSCLC
DMS 114 small cell lung = system: DMS 114 small cell lung
M14 melanoma = system: M14 melanoma
NCI-H23 lung = system: NCI-H23 lung
SK-MEL-5 melanoma = system: SK-MEL-5 melanoma
UACC-257 melanoma = system: UACC-257 melanoma
HCC-2998 colon = system: HCC-2998 colon
CAKI-1 renal = system: CAKI-1 renal
SK-OV-3 ovarian = system: SK-OV-3 ovarian
KM12 colon = system: KM12 colon
TK-10 renal = system: TK-10 renal
SK-MEL-2 melanoma = system: SK-MEL-2 melanoma
ACHN renal = system: ACHN renal
SNB-75 CNS = system: SNB-75 CNS
OVCAR-4 ovarian = system: OVCAR-4 ovarian

Measured: TGI

CC(=O)NNc1nc(C)c(C(=O)/C=C/c2cccc([N+](=O)[O-])c2)s1
not listed: ACHN renal | SNB-75 CNS | OVCAR-4 ovarian
> 100 µM: all other assays above

CC12OC3(C)OC(=O)C(c4ccccc4)(O1)C3(C)O2 (stereo not drawn)
not listed: SR leukemia | NCI-H460 lung | HOP-62 NSCLC
> 100 µM: all other assays above

CC1=C(c2cc(C(=O)Nc3cc(C)ccc3C)nc(N)n2)Sc2ccccc2N1
> 100 µM: all assays above
